Data: ChEMBL document CHEMBL6134844, “Development of Next-Generation Antimalarial Acridones with Radical Cure Potential” (J Med Chem, 2025)
Active and inactive are the calls of the source. No cut-off for these calls is given here.

Experiments:
[1] = Mutagenicity in Salmonella typhimurium TA100 assessed as background reversion rate up to 10 uM with S-9 metabolic activation by AMES test; assay type: toxicity; details: salmonella enterica subsp. enterica serovar typhimurium
Hepatocyte = test: Cytotoxicity against Macaca mulatta hepatocytes assessed as cell viability measured after 48 hrs by MTT assay; assay type: toxicity, cell-based; details: rhesus monkey, 48 h
[2] = Tmax in male ICR-CD1 mouse liver at 40 mg/kg, po; assay type: ADME, organism-based
Plasmodium yoelii [3] = test: In vivo antiplasmodial activity against asexual blood-stage (ABS) Plasmodium yoelii MRA-428 infected in 4-day suppression CF1 mouse model assessed as reduction in parasitemia by measuring cured mouse at 100 mg/kg, po single dose treated 24 hrs post infection; assay type: functional, organism-based
HepG2 = test: Cytotoxicity against human HepG2 cells assessed as cell viability measured after 48 hrs by MTT assay; assay type: functional, cell-based; details: HepG2, 48 h
[4] = Cmax in male ICR-CD1 mouse liver at 40 mg/kg, po; assay type: ADME, organism-based
Plasmodium berghei [5] = test: In vivo antiplasmodial activity against luciferase expressing liver stage Plasmodium berghei ANKA MRA-868 sporozoites infected in Albino C57BL/6 mouse model assessed as visible parasites at 40 mg/kg, po daily measured 24 to 48 hrs by real-time In Vivo Imaging System (IVIS); assay type: functional, organism-based; details: time 24-48 hrs
[6] = Selectivity index, ratio of CC50 for Macaca mulatta hepatocytes to IC50 for antiplasmodial activity against schizont Plasmodium cynomolgi B strain infected in Macaca mulatta hepatocytes incubated with sporozoite containing salivary gland homogenate obtained from dissected Anopheles dirus mosquitoes (infected with Plasmodium cynomolgi B strain) treatment started on day 4 post infection and continued daily for 4 days into fresh changed media until day 8 assessed as Liver stage (LS) activity by measuring radical cure mode by immunofluorescent staining analysis; assay type: toxicity, cell-based; details: rhesus monkey, read-out: Selectivity Index
[7] = MRTlast in male ICR-CD1 mouse plasma at 40 mg/kg, po; assay type: ADME, organism-based
Plasmodium yoelii [8] = test: In vivo antiplasmodial activity against asexual blood-stage (ABS) Plasmodium yoelii MRA-428 infected in 4-day suppression CF1 mouse model assessed as reduction in parasitemia by measuring protection at 30 mg/kg, po treated 24 hrs post infection daily measured up to 28 days; assay type: functional, organism-based; details: time <= 28.0 day
[9] = Toxicity in CF1 mouse infected with asexual blood-stage (ABS) Plasmodium yoelii MRA-428 assessed as lethargy at 0.3 to 30 mg/kg, po treated 24 hrs post infection measured after 4 days; assay type: organism-based; details: in vivo, 96 h, dose 0.3-30 mg/kg, time 4 day
Plasmodium berghei [10] = test: In vivo antiplasmodial activity against luciferase expressing liver stage Plasmodium berghei ANKA MRA-868 sporozoites infected in Albino C57BL/6 mouse model assessed as protection at 40 mg/kg, po daily measured 24 to 72 hrs by real-time In Vivo Imaging System (IVIS); assay type: functional; details: time 24-72 hrs
Plasmodium cynomolgi [11] = test: Antiplasmodial activity against schizont Plasmodium cynomolgi B strain infected in Macaca mulatta hepatocytes incubated with sporozoite containing salivary gland homogenate obtained from dissected Anopheles dirus mosquitoes (infected with Plasmodium cynomolgi B strain) treatment started on day 4 post infection and continued daily for 4 days into fresh changed media until day 8 assessed as Liver stage (LS) activity by measuring prophylactic mode by immunofluorescent staining analysis; assay type: functional, organism-based; details: Hepatocyte
[12] = Selectivity index, ratio of CC50 for Macaca mulatta hepatocytes to IC50 for antiplasmodial activity against schizont Plasmodium cynomolgi B strain infected in Macaca mulatta hepatocytes incubated with sporozoite containing salivary gland homogenate obtained from dissected Anopheles dirus mosquitoes (infected with Plasmodium cynomolgi B strain) treatment started on day 4 post infection and continued daily for 4 days into fresh changed media until day 8 assessed as Liver stage (LS) activity by measuring prophylactic mode by immunofluorescent staining analysis; assay type: toxicity, cell-based; details: rhesus monkey, read-out: Selectivity Index
[13] = Toxicity in CF1 mouse infected with asexual blood-stage (ABS) Plasmodium yoelii MRA-428 assessed as behavioural change at 0.3 to 30 mg/kg, po treated 24 hrs post infection measured after 4 days; assay type: organism-based; details: in vivo, dose 0.3-30 mg/kg
[14] = Half life in male ICR-CD1 mouse liver at 40 mg/kg, po; assay type: ADME, organism-based
[15] = Toxicity in CF1 mouse infected with asexual blood-stage (ABS) Plasmodium yoelii MRA-428 assessed as clinical toxicity at 0.3 to 30 mg/kg, po treated 24 hrs post infection measured after 4 days; assay type: organism-based; details: in vivo, dose 0.3-30 mg/kg
[16] = AUC(0 to infinity) in male ICR-CD1 mouse liver at 40 mg/kg, po; assay type: ADME, organism-based
Plasmodium falciparum [17] = test: Antiplasmodial activity against asexual blood-stage (ABS) MDR Plasmodium falciparum Dd2 infected in human erythrocytes assessed as reduction in fluorescence measured after 72 hrs by Malaria SYBR Green I-based Fluorescence (MSF) assay; assay type: functional, organism-based; details: Dd2, Erythrocyte
[18] = Mutagenicity in Salmonella typhimurium TA98 assessed as background reversion rate up to 10 uM without S-9 metabolic activation by AMES test; assay type: toxicity; details: salmonella enterica subsp. enterica serovar typhimurium
[19] = Toxicity in CF1 mouse infected with asexual blood-stage (ABS) Plasmodium yoelii MRA-428 assessed as hunching at 0.3 to 30 mg/kg, po treated 24 hrs post infection measured after 4 days; assay type: organism-based; details: in vivo, 96 h, dose 0.3-30 mg/kg, time 4 day
[20] = AUCextrap in male ICR-CD1 mouse liver at 40 mg/kg, po; assay type: ADME, organism-based
[21] = Selectivity index, ratio of CC50 for Macaca mulatta hepatocytes to IC50 for antiplasmodial activity against hypnozoite Plasmodium cynomolgi B strain infected in Macaca mulatta hepatocytes incubated with sporozoite containing salivary gland homogenate obtained from dissected Anopheles dirus mosquitoes (infected with Plasmodium cynomolgi B strain) treatment started on day 4 post infection and continued daily for 4 days into fresh changed media until day 8 assessed as Liver stage (LS) activity by measuring prophylactic mode by immunofluorescent staining analysis; assay type: toxicity, cell-based; details: rhesus monkey, read-out: Selectivity Index
[22] = Mutagenicity in Salmonella typhimurium TA100 assessed as background reversion rate up to 10 uM without S-9 metabolic activation by AMES test; assay type: toxicity; details: salmonella enterica subsp. enterica serovar typhimurium
[23] = Cmax in male ICR-CD1 mouse plasma at 40 mg/kg, po; assay type: ADME, organism-based
Plasmodium cynomolgi [24] = test: Antiplasmodial activity against hypnozoite Plasmodium cynomolgi B strain infected in Macaca mulatta hepatocytes incubated with sporozoite containing salivary gland homogenate obtained from dissected Anopheles dirus mosquitoes (infected with Plasmodium cynomolgi B strain) treatment started on day 4 post infection and continued daily for 4 days into fresh changed media until day 8 assessed as Liver stage (LS) activity by measuring prophylactic mode by immunofluorescent staining analysis; assay type: functional, organism-based; details: Hepatocyte
[25] = MRTlast in male ICR-CD1 mouse liver at 40 mg/kg, po; assay type: ADME, organism-based
Plasmodium falciparum [26] = test: Antiplasmodial activity against asexual blood-stage (ABS) CQ-sensitive Plasmodium falciparum D6 infected in human erythrocytes assessed as reduction in fluorescence measured after 72 hrs by Malaria SYBR Green I-based Fluorescence (MSF) assay; assay type: functional, organism-based; details: D6, Erythrocyte
Plasmodium cynomolgi [27] = test: Antiplasmodial activity against hypnozoite Plasmodium cynomolgi B strain infected in Macaca mulatta hepatocytes incubated with sporozoite containing salivary gland homogenate obtained from dissected Anopheles dirus mosquitoes (infected with Plasmodium cynomolgi B strain) treatment started on day 4 post infection and continued daily for 4 days into fresh changed media until day 8 assessed as Liver stage (LS) activity by measuring radical cure mode by immunofluorescent staining analysis; assay type: functional, organism-based; details: Hepatocyte
[28] = Toxicity in CF1 mouse infected with asexual blood-stage (ABS) Plasmodium yoelii MRA-428 assessed as weight loss at 0.3 to 30 mg/kg, po treated 24 hrs post infection measured after 4 days; assay type: organism-based; details: in vivo, 96 h, dose 0.3-30 mg/kg, time 4 day
[29] = Apparent oral clearance in male ICR-CD1 mouse liver at 40 mg/kg, po; assay type: ADME, organism-based

O=c1c2c([nH]c3cc(Oc4ccc(OC(F)(F)F)cc4)ccc13)CCCC2
Activity [1]: Non-toxic
CC50 (Hepatocyte): 610 nM
Tmax [2]: 4 h
Activity (Plasmodium yoelii [3]): Active
IC50 (HepG2): 99400 nM
Cmax [4]: 6080 ng/mL
Activity (Plasmodium berghei [5]): Active
selectivity ratio at 96 h [6]: 1.61
MRT last [7]: 4.1 h
Activity (Plasmodium yoelii [8]): Active; Out Of 4 - 3 Mouse Cured
Activity [9]: Non-toxic
Activity (Plasmodium berghei [10]): 100%
IC50 (Plasmodium cynomolgi [11]): 130 nM
selectivity ratio at 96 h [12]: 4.69
Activity [13]: Non-toxic
half-life [14]: 2.84 h
Activity [15]: Non-toxic
AUC(0-inf) [16]: 33000 ng·h/mL
IC50 (Plasmodium falciparum [17]): 0.253 nM
Activity [18]: Non-toxic
Activity [19]: Non-toxic
AUC [20]: 0.12%
selectivity ratio at 96 h [21]: 1.79
Activity [22]: Non-toxic
Cmax [23]: 83 ng/mL
IC50 (Plasmodium cynomolgi [24]): 340 nM
MRT last [25]: 5.16 h
IC50 (Plasmodium falciparum [26]): 0.31 nM
IC50 (Plasmodium cynomolgi [27]): 550 nM
Activity [28]: Non-toxic
CL/F [29]: 0.542 mL/min/kg

O=c1c2c([nH]c3cc(Oc4ccc(OC(F)(F)F)cc4)c(F)cc13)CCCC2
Activity [1]: Non-toxic
CC50 (Hepatocyte): 3110 nM
Tmax [2]: 0.5 h
Activity (Plasmodium yoelii [3]): Active
IC50 (HepG2): > 200000 nM
Cmax [4]: 654 ng/mL
Activity (Plasmodium berghei [5]): Active
selectivity ratio at 96 h [6]: 1.29
MRT last [7]: 2.95 h
Activity (Plasmodium yoelii [8]): Active; Out Of 4 - 3 Mouse Cured
Activity [9]: Non-toxic
Activity (Plasmodium berghei [10]): 100%
IC50 (Plasmodium cynomolgi [11]): 100 nM
selectivity ratio at 96 h [12]: 31.1
Activity [13]: Non-toxic
half-life [14]: 4.3 h
Activity [15]: Non-toxic
AUC(0-inf) [16]: 5510 ng·h/mL
IC50 (Plasmodium falciparum [17]): 0.268 nM
Activity [18]: Non-toxic
Activity [19]: Non-toxic
AUC [20]: 0.603%
selectivity ratio at 96 h [21]: 5.18
Activity [22]: Non-toxic
Cmax [23]: 42.1 ng/mL
IC50 (Plasmodium cynomolgi [24]): 600 nM
MRT last [25]: 5.64 h
IC50 (Plasmodium falciparum [26]): 0.015 nM
IC50 (Plasmodium cynomolgi [27]): 2080 nM
Activity [28]: Non-toxic
CL/F [29]: 3.58 mL/min/kg
